From US20130252930A1 (BIOMARIN PHARMACEUTICAL INC., priority 2010, published 2013)

target: T1, CYP17 (human testicular microsome) (Homo sapiens, UniProt P05093); experiment: CYP17 enzymatic assay (% inhibition at 1 nM) (Biological Example 12); type: biochemical; conditions: compound at 1 nM, read-out: Biological Example No. 12: CYP17 enzymatic assay % inhibition at 1 nM
T1 construct: using microsomal fraction from human testis (Celsis Cat #S00110) as the enzyme source; tissue Celsis S00110; host or cells: human testis microsomal fraction
T1 sequence (P05093 1-508): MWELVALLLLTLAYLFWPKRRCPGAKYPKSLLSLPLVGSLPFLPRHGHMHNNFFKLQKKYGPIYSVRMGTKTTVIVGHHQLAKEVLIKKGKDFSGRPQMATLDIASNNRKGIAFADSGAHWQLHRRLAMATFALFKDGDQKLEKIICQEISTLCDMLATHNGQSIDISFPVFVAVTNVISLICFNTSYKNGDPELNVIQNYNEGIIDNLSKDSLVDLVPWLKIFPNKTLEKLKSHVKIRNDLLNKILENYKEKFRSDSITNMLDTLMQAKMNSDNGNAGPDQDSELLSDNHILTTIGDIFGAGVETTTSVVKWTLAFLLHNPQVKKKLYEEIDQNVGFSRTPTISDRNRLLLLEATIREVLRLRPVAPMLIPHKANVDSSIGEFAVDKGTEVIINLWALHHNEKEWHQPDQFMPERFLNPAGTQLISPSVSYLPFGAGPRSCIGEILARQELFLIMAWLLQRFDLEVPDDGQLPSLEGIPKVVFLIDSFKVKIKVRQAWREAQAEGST

Compound | inhibition at 0.001 µM [%]
C[C@]12CC[C@H]3[C@@H](CC=C4C[C@@H](OC(=O)Nc5cccnc5)CC[C@@]43C)C1=CC=C2c1cccnc1 [Compound 204, (3S,10R,13S)-10,13-dimethyl-17-(pyridin-3-yl)-2,3,4,7,8,9,10,11,12,13-decahydro-1H-cyclopenta[a]phenanthren-3-yl pyridin-3-ylcarbamate] | 10 to 50
Cc1ccncc1C(=O)O[C@H]1CC[C@@]2(C)C(=CC[C@H]3C4=CC=C(c5cccnc5)[C@@]4(C)CC[C@@H]32)C1 [Compound 205, (3S,10R,13S)-10,13-dimethyl-17-(pyridin-3-yl)-2,3,4,7,8,9,10,11,12,13-decahydro-1H-cyclopenta[a]phenanthren-3-yl 4-methylnicotinate] | 10 to 50
CC(CO)(CO)C(=O)O[C@H]1CC[C@@]2(C)C(=CC[C@H]3C4=CC=C(c5cccnc5)[C@@]4(C)CC[C@@H]32)C1 [Compound 206, (3S,10R,13S)-10,13-dimethyl-17-(pyridin-3-yl)-2,3,4,7,8,9,10,11,12,13-decahydro-1H-cyclopenta[a]phenanthren-3-yl 3-hydroxy-2-(hydroxymethyl)-2-methylpropanoate] | < 10
CN1CCC(C(=O)O[C@H]2CC[C@@]3(C)C(=CC[C@H]4C5=CC=C(c6cccnc6)[C@@]5(C)CC[C@@H]43)C2)CC1 [Compound 207, (3S,10R,13S)-10,13-dimethyl-17-(pyridin-3-yl)-2,3,4,7,8,9,10,11,12,13-decahydro-1H-cyclopenta[a]phenanthren-3-yl 1-methylpiperidine-4-carboxylate] | 10 to 50

same assay, conditions: compound at 1 nM, read-out: CYP17 enzymatic assay % inhibition at 1 nM (Biological Example No. 12)

Compound | inhibition at 0.001 µM [%]
CNC1C[C@H]2[C@@H]3CC=C(n4ccnc4)[C@@]3(C)CC[C@@H]2[C@@]2(C)CCC3CC312 (mixture of isomers) [Compound 248, (3aR,5aS)-6-(1H-imidazol-1-yl)-N,3a,5a-trimethyl-1,1a,2,3,3a,3b,4,5,5a,8,8a,8b,9,10-tetradecahydrocyclopenta[a]cyclopropa[2,3]cyclopenta[1,2-f]naphthalen-10-amine] | < 10
CC(C)C(=O)O[C@H]1CC[C@@]2(C)C(=CCC3C4=CC=C(c5cccnc5)[C@@]4(C)CCC32)C1 (stereo partly drawn) [Compound 191, (3S,10R,13S)-10,13-dimethyl-17-(pyridin-3-yl)-2,3,4,7,8,9,10,11,12,13-decahydro-1H-cyclopenta[a]phenanthren-3-yl isobutyrate] | 10 to 50
CC(C)(C)C(=O)O[C@H]1CC[C@@]2(C)C(=CCC3C4=CC=C(c5cccnc5)[C@@]4(C)CCC32)C1 (stereo partly drawn) [Compound 192, (3S,10R,13S)-10,13-dimethyl-17-(pyridin-3-yl)-2,3,4,7,8,9,10,11,12,13-decahydro-1H-cyclopenta[a]phenanthren-3-yl pivalate] | 10 to 50
Cc1ccccc1C(=O)O[C@H]1CC[C@@]2(C)C(=CCC3C4=CC=C(c5cccnc5)[C@@]4(C)CCC32)C1 (stereo partly drawn) [Compound 195, (3S,10R,13S)-10,13-dimethyl-17-(pyridin-3-yl)-2,3,4,7,8,9,10,11,12,13-decahydro-1H-cyclopenta[a]phenanthren-3-yl 2-methylbenzoate] | 10 to 50
CC(C)(C)c1ccccc1C(=O)O[C@H]1CC[C@@]2(C)C(=CC[C@H]3C4=CC=C(c5cccnc5)[C@@]4(C)CC[C@@H]32)C1 [Compound 201, (3S,10R,13S)-10,13-dimethyl-17-(pyridin-3-yl)-2,3,4,7,8,9,10,11,12,13-decahydro-1H-cyclopenta[a]phenanthren-3-yl 2-(tert-butyl)benzoate] | < 10
CCNC(=O)O[C@H]1CC[C@@]2(C)C(=CC[C@H]3C4=CC=C(c5cccnc5)[C@@]4(C)CC[C@@H]32)C1 [Compound 202, (3S,10R,13S)-10,13-dimethyl-17-(pyridin-3-yl)-2,3,4,7,8,9,10,11,12,13-decahydro-1H-cyclopenta[a]phenanthren-3-yl ethylcarbamate] | < 10
CC(C)(C)NC(=O)O[C@H]1CC[C@@]2(C)C(=CC[C@H]3C4=CC=C(c5cccnc5)[C@@]4(C)CC[C@@H]32)C1 [Compound 203, (3S,10R,13S)-10,13-dimethyl-17-(pyridin-3-yl)-2,3,4,7,8,9,10,11,12,13-decahydro-1H-cyclopenta[a]phenanthren-3-yl tert-butylcarbamate] | 10 to 50
CNC1CC[C@@]2(C)C(CCC3C2CC[C@]2(C)C(c4cncc(C)c4)=CCC32)C1 (stereo partly drawn) [Compound 210, (10S,13S)-N,10,13-trimethyl-17-(5-methylpyridin-3-yl)-2,3,4,5,6,7,8,9,10,11,12,13,14,15-tetradecahydro-1H-cyclopenta[a]phenanthren-3-amine] | 10 to 50
CNC1CC[C@@]2(C)C(CC[C@@H]3[C@@H]2CC[C@]2(C)C(c4cccnc4)=CC[C@@H]32)C1 (stereo partly drawn) [Compound 211, (10S,13S)-N,10,13-trimethyl-17-(pyridin-3-yl)-2,3,4,5,6,7,8,9,10,11,12,13,14,15-tetradecahydro-1H-cyclopenta[a]phenanthren-3-amine] | 10 to 50
CC(=O)N(C)C1CC[C@@]2(C)C(CCC3C2CC[C@]2(C)C(c4cncc(C)c4)=CCC32)C1 (stereo partly drawn) [Compound 212, N-((10S,13S)-10,13-dimethyl-17-(5-methylpyridin-3-yl)-2,3,4,5,6,7,8,9,10,11,12,13,14,15-tetradecahydro-1H-cyclopenta[a]phenanthren-3-yl)-N-methylacetamide] | 10 to 50
CC(=O)N(C)C1CC[C@@]2(C)C(CCC3C2CC[C@]2(C)C(c4cccnc4)=CCC32)C1 (stereo partly drawn) [Compound 213, N-((10S,13S)-10,13-dimethyl-17-(pyridin-3-yl)-2,3,4,5,6,7,8,9,10,11,12,13,14,15-tetradecahydro-1H-cyclopenta[a]phenanthren-3-yl)-N-methylacetamide] | 10 to 50
C[C@]12CC[C@@H](N)CC1CC[C@@H]1[C@@H]2CC[C@]2(C)C(c3cccnc3)=CC[C@@H]12 (stereo partly drawn) [Compound 214, (3R,10S,13S)-10,13-dimethyl-17-(pyridin-3-yl)-2,3,4,5,6,7,8,9,10,11,12,13,14,15-tetradecahydro-1H-cyclopenta[a]phenanthren-3-amine] | 10 to 50
C[C@]12CC[C@@H](N=[N+]=[N-])CC1CC[C@@H]1[C@@H]2CC[C@]2(C)C(c3cccnc3)=CC[C@@H]12 (stereo partly drawn) [Compound 214b, 3-((3R,10S,13S)-3-azido-10,13-dimethyl-2,3,4,5,6,7,8,9,10,11,12,13,14,15-tetradecahydro-1H-cyclopenta[a]phenanthren-17-yl)pyridine] | 10 to 50
C[C@]12CC[C@@H](NC(=O)C(F)(F)F)CC1CCC1C2CC[C@]2(C)C(c3cccnc3)=CCC12 (stereo partly drawn) [Compound 217, N-((3R,10S,13S)-10,13-dimethyl-17-(pyridin-3-yl)-2,3,4,5,6,7,8,9,10,11,12,13,14,15-tetradecahydro-1H-cyclopenta[a]phenanthren-3-yl)-2,2,2-trifluoroacetamide] | 10 to 50
C[C@]12CC[C@@H](NS(C)(=O)=O)CC1=CCC1C2CC[C@]2(C)C(c3cccnc3)=CCC12 (stereo partly drawn) [Compound 225, N-((3R,10R,13S)-10,13-dimethyl-17-(pyridin-3-yl)-2,3,4,7,8,9,10,11,12,13,14,15-dodecahydro-1H-cyclopenta[a]phenanthren-3-yl)methanesulfonamide] | 10 to 50
C[C@]12CC[C@@H](NC(=O)c3nccs3)CC1=CC[C@@H]1[C@@H]2CC[C@]2(C)C(c3cccnc3)=CC[C@@H]12 [Compound 229, N-((3R,10R,13S)-10,13-dimethyl-17-(pyridin-3-yl)-2,3,4,7,8,9,10,11,12,13,14,15-dodecahydro-1H-cyclopenta[a]phenanthren-3-yl)thiazole-2-carboxamide] | 10 to 50
CCNC(=S)N[C@@H]1CC[C@@]2(C)C(=CC[C@@H]3[C@@H]2CC[C@]2(C)C(c4cccnc4)=CC[C@@H]32)C1 [Compound 233, 1-((3R,10R,13S)-10,13-dimethyl-17-(pyridin-3-yl)-2,3,4,7,8,9,10,11,12,13,14,15-dodecahydro-1H-cyclopenta[a]phenanthren-3-yl)-3-ethylthiourea] | 10 to 50

same assay, conditions: test compound at 1 nM, read-out: CYP17 enzymatic assay percent inhibition at 1 nM (Biological Example No. 12)

Compound | inhibition at 0.001 µM [%]
CCC(=O)O[C@H]1CC[C@@]2(C)C(=CCC3C4=CC=C(c5cccnc5)[C@@]4(C)CCC32)C1 (stereo partly drawn) [Compound 193, (3S,10R,13S)-10,13-dimethyl-17-(pyridin-3-yl)-2,3,4,7,8,9,10,11,12,13-decahydro-1H-cyclopenta[a]phenanthren-3-yl propionate] | 10 to 50
C[C@]12CCC3C(CC=C4C[C@@H](OC(=O)c5ccccc5)CC[C@@]43C)C1=CC=C2c1cccnc1 (stereo partly drawn) [Compound 194, (3S,10R,13S)-10,13-dimethyl-17-(pyridin-3-yl)-2,3,4,7,8,9,10,11,12,13-decahydro-1H-cyclopenta[a]phenanthren-3-yl benzoate] | 10 to 50
CC(C)(C)C(=O)N[C@@H]1CC[C@@]2(C)C(CCC3C2CC[C@]2(C)C(c4cccnc4)=CCC32)C1 (stereo partly drawn) [Compound 218, N-((3R,10S,13S)-10,13-dimethyl-17-(pyridin-3-yl)-2,3,4,5,6,7,8,9,10,11,12,13,14,15-tetradecahydro-1H-cyclopenta[a]phenanthren-3-yl)pivalamide] | 10 to 50
